Results: patent US7189742B2, “Piperidin-2,6-dione bisulphate salts and their use for the treatment of stress related affective disorders” (Prestwick Pharmaceuticals, Inc., priority 2001, dated 2007)
Where a name gives a salt, the structure may show the parent alone. Read-outs that look alike come from different tables or passages of the source.

Legend:
[1] = cited from earlier work
human patients = conditions: cited from earlier work; for treatment of anxiety and depression: about 4 mg/kg/day (200–400 mg/day for human patients)
Male Wistar rats [2] = conditions: earlier studies, cited from earlier work
Male Wistar rats [3] = experiment: Chronic mild stress (CMS) model, consumption of 1% sucrose solution; format: in vivo, rat; conditions: for consumption of sucrose solution one week after withdrawal from treatment: all drug-treated groups, control and stressed, stress continued; for consumption of sucrose solution in control animals / sucrose intake in stressed animals (treatment effect): 5 weeks
Experimental: (§1) Male Wistar rats were brought into the laboratory 2 months before the start of the experiment, at which time they weighed approx. 300 g. Except as described below, all animals were singly housed, with food and water freely available, and maintained on a 12-hour light/dark. The animals were first trained to consume a 1% sucrose solution. Training consisted of nine 1-hour baseline tests in which sucrose was presented in pre-weighed bottles, in the home cage, and, following 14 hours food and water deprivation; the sucrose intake was measured by weighing the pre-weighed bottles at the end of the test. Subsequently, sucrose consumption was monitored, under similar conditions, at weekly intervals throughout the whole experiment.
(§2) On the basis of their sucrose intakes in the final baseline test, the animals were divided into two matched groups. One group of animals was subjected to a chronic mild stress (“CMS”) procedure for a period of 9 consecutive weeks. Each week of stress regime consisted of: two periods of food or water deprivation, two periods of 45 degree cage tilt, two periods of intermittent illumination (lights on and off every 2 hours), two periods of soiled cage (250 ml water in sawdust bedding), two periods of paired housing, two periods of low intensity stroboscopic illumination, and two periods of no stress. All stressors were of 10–14 hours duration and were applied individually and continuously, day and night. Control animals were housed in a separate room and had no contact with the stressed animals. They were deprived of food and water for the 14 hours preceding each sucrose test, but otherwise food and water were freely available in the home cage. […] After five weeks, all treatments were terminated and after one week of withdrawal a final sucrose test was carried out. Stress was continued throughout the period of treatment and withdrawal.
Chronic mild stress causes a gradual decrease in the consumption of 1% sucrose solution. In the final baseline test, all animals drank approximately 12 g of sucrose solution. Following initial three weeks of stress, intakes remained at the same level in control animals but fell to 7.5 (±0.3) g in stressed animals. Such a difference between control and stressed animals treated with vehicle, persisted at similar level for the remainder of the experiment [Group effect: F(1,98)=67.256; P<0.001].

[4] = Body weights, behaviour and withdrawal signs in the CMS study; format: in vivo, rat; conditions: for effect of chronic treatment on body weights: 5 weeks, imipramine 10 mg/kg i.p., AGN 2979 bisulphate 1, 4, 16 mg/kg p.o.; for signs of withdrawal after cessation of treatment: stressed or control animals, one week after cessation
Experimental: as §1, §2

subject = experiment: Single subject with obstructive sleep apnoea, oral maintenance treatment; format: in vivo, human
Experimental: A subject, height 178 cm and weighing 90 kilograms having had persistent awakening episodes of obstructive sleep apnoea (manifested by nocturnal choking) had been treated for several years with AGN 2979 hydrochloride, initially at a daily oral dose level of 120 mg and subsequently at a single oral maintenance dose of 120 mg every 4 days. […] The patient also reports that previous regular bouts of seasickness have been not recurred since treatment with AGN 2979 bisulphate.

[5] = Effect of AGN 2979 bisulphate on rat weight (0.36% in diet); format: in vivo, Male Spraque-Dawley rats; conditions: after initial period of 3 or 4 days, about 230 mg/kg
Experimental: 4 Male Spraque-Dawley rats were fed with their standard laboratory diet to which had been added 0.36% AGN 2979 bisulphate for a period of 9 days and their weight monitored on a daily basis and compared with 2 control rats receiving the standard laboratory diet without the bisulphate. For a rat weighing 360 g and consuming 23 g of the diet, the amount of AGN 2979 bisulphate consumed was about 230 mg/kg. The results are shown in Table 1 below, in which the bisulphate is identified as “AGN 2979 BS”. […] In particular, the test rats lost or merely maintained their body weight. The weight gains after an initial 3 day period for the two control rats and for test rats 3 and 6 are shown graphically in FIG. 1 and the weight gains for all 6 rats after an initial 4 day period are shown in FIG. 2.

tryptophan hydroxylase = conditions: no method or data given; cited from earlier work
[6] = stressed animals, imipramine 10 mg/kg i.p. daily
[7] = single oral maintenance dose of 65 mg every two days, one subject
[8] = stressed animals, 4 mg/kg p.o. daily

In the case of `COc1cccc(C2(CCCN(C)C)C(=O)NC(=O)CC2(C)C)c1` (stereo not shown) [AGN 2979 hydrochloride, 3(3-methoxyphenyl)-3-(3-dimethylaminopropyl)-4,4-dimethylpiperidine-2,6-dione], the post-mortem examination finding ([1]; 200 mg/kg/day p.o., rats, 1 year, not detected by routine transaminase determinations) is given as “hepatocyte changes”, the weight loss ([1]; 200 mg/kg/day p.o., rats, over the 1-year period) is given as 40% and the “weight of test rats compared with control rats” value ([1]; 200 mg/kg, previous experiments) is given as “continuing weight disparity (loss)”. For the same compound, the “anxiolytic properties at FDA permitted dose” value (human patients; 1 mg b.i.d. (about 30 μg/kg/day), clinical study by Cutler et al) was “only marginally effective anxiolytic properties”, the “treatment of anxiety and depression” value (human patients) was “effective in alleviating depression” and the “treatment of anxiety and depression” value (human patients; listed as hydrochloride salt of AGN 2979) was “effective”. The “adverse effects following discontinuation of chronic administration” value (human patients; previous clinical observations) was “does not cause any adverse effects following discontinuation”.
For `CN(C)CCC=C1c2ccccc2CCc2ccccc21` [amitriptyline], the “efficacy against CMS-induced anhedonia when doses increased above threshold active ones” value (Male Wistar rats [2]) is given as “not more effective”.
In the case of `CN(C)CCCN1c2ccccc2CCc2ccccc21` [imipramine], the “consumption of sucrose solution one week after withdrawal from treatment” value (Male Wistar rats [3]) was “comparable to that observed in Week 5 of treatment”, the “consumption of sucrose solution in control animals” value (Male Wistar rats [3]; imipramine 10 mg/kg i.p. daily) was “not changed” and the “onset of significant increase of sucrose intake” value (Male Wistar rats [3]; [6]) was “after three weeks of treatment”. The “sucrose intake after five weeks of treatment versus vehicle-treated control animals” value (Male Wistar rats [3]; [6]) was “no significant differences between drug-treated stressed and vehicle-treated control animals”, the “sucrose intake in stressed animals (treatment effect)” value (Male Wistar rats [3]; [6]) was “gradual increase of sucrose intake” and the “effects in CMS model at higher dose (magnitude and time-course)” value (Male Wistar rats [2]; imipramine 20 mg/kg per day) was “caused similar effects”. For the same compound, the “effect of chronic treatment on body weights” value ([4]; control and stressed animals) was “no significant effect on body weights” and the “signs of withdrawal after cessation of treatment” value [4] was “no signs of withdrawal were observed”.
In the case of `COc1cccc(C2(CCCN(C)C)C(=O)NC(=O)CC2(C)C)c1` (stereo not shown) [AGN 2979 bisulphate, 3(3-methoxyphenyl)-3-(3-dimethylaminopropyl)-4,4-dimethyl-piperidine-2,6-dione bisulphate], the “nocturnal choking after suspension of administration” value (subject; administration suspended, one subject) was “returned after three weeks”, the bouts of seasickness (subject; patient report, since treatment) was “not recurred” and the “awakening episodes of obstructive sleep apnoea” value (subject; [7]) was “continued absence of awakening episodes”. The side effects (subject; [7]) was “no side effects”, the “weight gain of test rats versus control rats” value [5] was “the same as that of the control rats” and the “consumption of sucrose solution one week after withdrawal from treatment” value (Male Wistar rats [3]) was “comparable to that observed in Week 5 of treatment”. For the same compound, the “consumption of sucrose solution in control animals” value (Male Wistar rats [3]; any of three doses 1, 4 and 16 mg/kg p.o. daily) was “not changed”, the “activity against stress-induced deficit in sucrose consumption” value (shortened to “activity against stress-induced deficit”) (Male Wistar rats [3]; stressed animals, 1 mg/kg p.o. daily) was “ineffective” and the “activity against stress-induced deficit” value (Male Wistar rats [3]; [8]) was “active”. For the same compound, the “onset of significant increase of sucrose intake” value (Male Wistar rats [3]; [8]) was “within the first week of treatment”, the “sucrose solution drunk at end of treatment (Week 5) versus vehicle-treated controls” value (Male Wistar rats [3]; [8]) was “comparable to that of vehicle-treated controls” and the “activity against stress-induced deficit” value (Male Wistar rats [3]; stressed animals, 16 mg/kg p.o. daily) was “ineffective”. For the same compound, the “sucrose intake in stressed animals (treatment effect)” value (Male Wistar rats [3]; stressed animals, 1, 4 and 16 mg/kg p.o. daily, overall) was “gradual increase of sucrose intake”, the “activation of tryptophan hydroxylase by metabolic inhibitors (guanidine, sodium cyanide)” value (tryptophan hydroxylase) was “blocked” and the behavioural impairments ([4]; 16 mg/kg p.o., control and stressed animals, disappeared at end of third week) was “sedation, hypoactivity (but not catalepsy) and hyporeactivity to handling and drug injections”. For the same compound, the “effect of chronic treatment on body weights” value ([4]; control and stressed animals) was “no significant effect on body weights” and the “signs of withdrawal after cessation of treatment” value [4] was “no signs of withdrawal were observed”.
For `O=C1CC2(CCCC2)CC(=O)N1CCCCN1CCN(c2ncccn2)CC1` [buspirone], the “efficacy against CMS-induced anhedonia when doses increased above threshold active ones” value (Male Wistar rats [2]) is listed as “not more effective”.
